Data: US6846500B1, “Oral care chewing gums and method of use” (Cadbury Adams USA LLC, priority 1999, dated 2005)

Experiment: Calcium precipitation on mixing CPP-ACP and sodium bicarbonate; calcium retained on filter by Atomic Absorption
Format: physicochemical, human
Experimental: The in vivo test was done to first determine the release of CPP-ACP. A five person panel chewed a gum containing 1% CPP-ACP. […] CPP-ACP and sodium bicarbonate at these concentration were incubated in a 30 ml pooled human saliva with moderate shaking at 37° C. for 3 minutes to test precipitation upon consumption of the gum and at 1 hour to show how longer contact time would precipitate calcium carbonate. The resultant pH of the incubation solution was approximately 7. The solution was filtered, the retentate was rinsed with deionized H2O to remove any soluble calcium and the result was analyzed for calcium content by Atomic Absorption analysis. As a control an aqueous solution of 30 g of a 0.3% CPP-ACP solution was pass through the filter paper.

- Calcium retained (30 g of saliva stored at 37° C. for 3 minutes): 1.700 mg
- Calcium retained (30 g of saliva stored at 37° C. for 3 minutes, listed as sodium bicarbonate): 1.7 mg
- Calcium retained (30 g of saliva stored at 37° C. for 1 hour): 1.600 mg
Structure (SMILES): O=C([O-])O.[Na+] [NaHCO3, sodium bicarbonate]
